Measurements from publication PMC11277489, “Novel Piperazine Derivatives of Vindoline as Anticancer Agents” (International Journal of Molecular Sciences, 2024).

What was measured:
HCT-15 = test: NCI60 five-dose screen, Colon Cancer; assay type: cell-based; conditions: Homo sapiens; HCT-15, Colon Cancer; five-dose screen; read-out: GI50
SR [1] = test: NCI60 five-dose screen, Leukemia; assay type: cell-based; conditions: Homo sapiens, Leukemia, five-dose screen, read-out: GI50
NCI-H460 = test: NCI60 five-dose screen, Non-small Cell Lung Cancer; assay type: cell-based; conditions: Homo sapiens; NCI-H460, Non-small Cell Lung Cancer; five-dose screen; read-out: GI50
M14 [2] = test: NCI60 one-dose screen (10 μM), Melanoma; assay type: cell-based; conditions: Homo sapiens; 10 μM; M14, Melanoma; read-out: Growth percent rate
T-47D [3] = test: NCI60 five-dose screen, Breast Cancer; assay type: cell-based; conditions: Homo sapiens, T47D; T-47D, Breast Cancer; five-dose screen; read-out: GI50
SW-620 = test: NCI60 five-dose screen, Colon Cancer; assay type: cell-based; conditions: Homo sapiens; SW-620, Colon Cancer; five-dose screen; read-out: GI50
HCC-2998 [4] = test: NCI60 five-dose screen, Colon Cancer; assay type: cell-based; conditions: Homo sapiens; HCC-2998, Colon Cancer; five-dose screen; read-out: GI50
DU-145 = test: NCI60 one-dose screen (10 μM), Prostate Cancer; assay type: cell-based; conditions: Homo sapiens; 10 μM; DU-145, Prostate Cancer; read-out: Growth percent rate
UACC-62 = test: NCI60 one-dose screen (10 μM), Melanoma; assay type: cell-based; conditions: Homo sapiens; 10 μM; UACC-62, Melanoma; read-out: Growth percent rate
MDA-MB231ATCC = test: NCI60 five-dose screen, Breast Cancer; assay type: cell-based; conditions: Homo sapiens, MDA-MB-231; MDA-MB231ATCC, Breast Cancer; five-dose screen; read-out: GI50
U251 = test: NCI60 five-dose screen, CNS Cancer; assay type: cell-based; conditions: Homo sapiens, U-251; U251, CNS Cancer; five-dose screen; read-out: GI50
SK-MEL-5 [5] = test: NCI60 five-dose screen, Melanoma; assay type: cell-based; conditions: Homo sapiens; SK-MEL-5, Melanoma; five-dose screen; read-out: GI50
HT29 = test: NCI60 one-dose screen (10 μM), Colon Cancer; assay type: cell-based; conditions: Homo sapiens, HT-29; 10 μM; HT29, Colon Cancer; read-out: Growth percent rate
MDA-MB-435 = test: NCI60 five-dose screen, Melanoma; assay type: cell-based; conditions: Homo sapiens; MDA-MB-435, Melanoma; five-dose screen; read-out: GI50
MDA-MB-468 [6] = test: NCI60 one-dose screen (10 μM), Breast Cancer; assay type: cell-based; conditions: Homo sapiens; 10 μM; MDA-MB-468, Breast Cancer; read-out: Growth percent rate
OVCAR-4 = test: NCI60 five-dose screen, Ovarian Cancer; assay type: cell-based; conditions: Homo sapiens; OVCAR-4, Ovarian Cancer; five-dose screen; read-out: GI50
SK-OV-3 = test: NCI60 one-dose screen (10 μM), Ovarian Cancer; assay type: cell-based; conditions: Homo sapiens; 10 μM; SK-OV-3, Ovarian Cancer; read-out: Growth percent rate
M14 [7] = test: NCI60 five-dose screen, Melanoma; assay type: cell-based; conditions: Homo sapiens; M14, Melanoma; five-dose screen; read-out: GI50
TK-10 = test: NCI60 five-dose screen, Renal Cancer; assay type: cell-based; conditions: Homo sapiens; TK-10, Renal Cancer; five-dose screen; read-out: GI50
IGROV1 = test: NCI60 five-dose screen, Ovarian Cancer; assay type: cell-based; conditions: Homo sapiens, IGROV-1; IGROV1, Ovarian Cancer; five-dose screen; read-out: GI50
NCI/ADR-RES [8] = test: NCI60 one-dose screen (10 μM), Ovarian Cancer; assay type: cell-based; conditions: Homo sapiens, 10 μM, Ovarian Cancer, read-out: Growth percent rate
BT-549 [9] = test: NCI60 five-dose screen, Breast Cancer; assay type: cell-based; conditions: Homo sapiens; BT-549, Breast Cancer; five-dose screen; read-out: GI50
HOP-92 = test: NCI60 one-dose screen (10 μM), Non-small Cell Lung Cancer; assay type: cell-based; conditions: Homo sapiens; 10 μM; HOP-92, Non-small Cell Lung Cancer; read-out: Growth percent rate
PC-3 [10] = test: NCI60 five-dose screen, Prostate Cancer; assay type: cell-based; conditions: Homo sapiens; PC-3, Prostate Cancer; five-dose screen; read-out: GI50
SF-268 = test: NCI60 five-dose screen, CNS Cancer; assay type: cell-based; conditions: Homo sapiens; SF-268, CNS Cancer; five-dose screen; read-out: GI50
OVCAR-5 [11] = test: NCI60 five-dose screen, Ovarian Cancer; assay type: cell-based; conditions: Homo sapiens; OVCAR-5, Ovarian Cancer; five-dose screen; read-out: GI50
PC-3 [12] = test: NCI60 one-dose screen (10 μM), Prostate Cancer; assay type: cell-based; conditions: Homo sapiens; 10 μM; PC-3, Prostate Cancer; read-out: Growth percent rate
MDA-MB-468 [13] = test: NCI60 five-dose screen, Breast Cancer; assay type: cell-based; conditions: Homo sapiens; MDA-MB-468, Breast Cancer; five-dose screen; read-out: GI50
SNB-19 = test: NCI60 one-dose screen (10 μM), CNS Cancer; assay type: cell-based; conditions: Homo sapiens; 10 μM; SNB-19, CNS Cancer; read-out: Growth percent rate
BT-549 [14] = test: NCI60 one-dose screen (10 μM), Breast Cancer; assay type: cell-based; conditions: Homo sapiens; 10 μM; BT-549, Breast Cancer; read-out: Growth percent rate
HCC-2998 [15] = test: NCI60 one-dose screen (10 μM), Colon Cancer; assay type: cell-based; conditions: Homo sapiens; 10 μM; HCC-2998, Colon Cancer; read-out: Growth percent rate
LOX IMVI = test: NCI60 five-dose screen, Melanoma; assay type: cell-based; conditions: Homo sapiens, Melanoma, five-dose screen, read-out: GI50
A549/ATCC = test: NCI60 five-dose screen, Non-small Cell Lung Cancer; assay type: cell-based; conditions: Homo sapiens; A549/ATCC, Non-small Cell Lung Cancer; five-dose screen; read-out: GI50
OVCAR-3 = test: NCI60 five-dose screen, Ovarian Cancer; assay type: cell-based; conditions: Homo sapiens; OVCAR-3, Ovarian Cancer; five-dose screen; read-out: GI50
NCI-H226 = test: NCI60 one-dose screen (10 μM), Non-small Cell Lung Cancer; assay type: cell-based; conditions: Homo sapiens; 10 μM; NCI-H226, Non-small Cell Lung Cancer; read-out: Growth percent rate
ACHN = test: NCI60 five-dose screen, Renal Cancer; assay type: cell-based; conditions: Homo sapiens, Renal Cancer, five-dose screen, read-out: GI50
HL-60(TB) = test: NCI60 five-dose screen, Leukemia; assay type: cell-based; conditions: Homo sapiens; HL-60(TB), Leukemia; five-dose screen; read-out: GI50
HS 578T = test: NCI60 five-dose screen, Breast Cancer; assay type: cell-based; conditions: Homo sapiens; HS 578T, Breast Cancer; five-dose screen; read-out: GI50
NCI/ADR-RES [16] = test: NCI60 five-dose screen, Ovarian Cancer; assay type: cell-based; conditions: Homo sapiens, Ovarian Cancer, five-dose screen, read-out: GI50
SK-MEL-5 [17] = test: NCI60 one-dose screen (10 μM), Melanoma; assay type: cell-based, human; conditions: Homo sapiens; 10 μM; SK-MEL-5, Melanoma; read-out: Growth percent rate
K-562 = test: NCI60 five-dose screen, Leukemia; assay type: cell-based; conditions: Homo sapiens, K562; K-562, Leukemia; five-dose screen; read-out: GI50
OVCAR-5 [18] = test: NCI60 one-dose screen (10 μM), Ovarian Cancer; assay type: cell-based; conditions: Homo sapiens; 10 μM; OVCAR-5, Ovarian Cancer; read-out: Growth percent rate
UO-31 = test: NCI60 one-dose screen (10 μM), Renal Cancer; assay type: cell-based; conditions: Homo sapiens; 10 μM; UO-31, Renal Cancer; read-out: Growth percent rate
T-47D [19] = test: NCI60 one-dose screen (10 μM), Breast Cancer; assay type: cell-based; conditions: Homo sapiens, T47D; 10 μM; T-47D, Breast Cancer; read-out: Growth percent rate
SR [20] = test: NCI60 one-dose screen (10 μM), Leukemia; assay type: cell-based; conditions: Homo sapiens, 10 μM, Leukemia, read-out: Growth percent rate
MDA-MB-231/ATCC = test: NCI60 one-dose screen (10 μM), Breast Cancer; assay type: cell-based, human; conditions: Homo sapiens; 10 μM; MDA-MB-231/ATCC, Breast Cancer; read-out: Growth percent rate

`CC[C@]12C=CCN3CC[C@@]4(c5ccc(OC)cc5N(C)[C@H]4[C@@](O)(C(=O)OC)[C@@H]1OC(=O)CCC(=O)N1CCN(C(c4ccc(F)cc4)c4ccc(F)cc4)CC1)[C@@H]32` [Compound 31] gave a GI50 (HCT-15) of 2450 nM, a GI50 (SR [1]) of 1630 nM and a GI50 (NCI-H460) of 1930 nM. The activity at 10 µM (M14 [2]) was 0.99%, the GI50 (T-47D [3]) was 2470 nM and the GI50 (SW-620) was 2270 nM. For the same compound, the GI50 (HCC-2998 [4]) was 1240 nM, the activity at 10 µM (DU-145) was -3.52% and the activity at 10 µM (UACC-62) was -84.3%. For the same compound, the GI50 (MDA-MB231ATCC) was 3020 nM, the GI50 (U251) was 2780 nM and the GI50 (SK-MEL-5 [5]) was 1840 nM. For the same compound, the activity at 10 µM (HT29) was -83.3%, the GI50 (MDA-MB-435) was 2700 nM and the activity at 10 µM (MDA-MB-468 [6]) was -69.1%. It also gave a GI50 (OVCAR-4) of 1620 nM, an activity at 10 µM (SK-OV-3) of -15.6% and a GI50 (M14 [7]) of 3550 nM. It also gave a GI50 (TK-10) of 2570 nM, a GI50 (IGROV1) of 2500 nM and an activity at 10 µM (NCI/ADR-RES [8]) of -62.1%. For the same compound, the GI50 (BT-549 [9]) was 1810 nM, the activity at 10 µM (HOP-92) was -44.9% and the GI50 (PC-3 [10]) was 1860 nM. It also gave a GI50 (SF-268) of 2980 nM, a GI50 (OVCAR-5 [11]) of 2180 nM and an activity at 10 µM (PC-3 [12]) of -28.5%. It also gave a GI50 (MDA-MB-468 [13]) of 1200 nM, an activity at 10 µM (SNB-19) of 8.85% and an activity at 10 µM (BT-549 [14]) of -60.6%. For the same compound, the activity at 10 µM (HCC-2998 [15]) was -66.9%, the GI50 (LOX IMVI) was 1800 nM and the GI50 (A549/ATCC) was 2670 nM. For the same compound, the GI50 (OVCAR-3) was 1600 nM, the activity at 10 µM (NCI-H226) was -32.4% and the GI50 (ACHN) was 2060 nM. It also gave a GI50 (HL-60(TB)) of 1930 nM, a GI50 (HS 578T) of 1740 nM and a GI50 (NCI/ADR-RES [16]) of 1950 nM. The activity at 10 µM (SK-MEL-5 [17]) was -88% and the GI50 (K-562) was 2920 nM.

With `CC[C@]12C=CCN3CC[C@@]4(c5ccc(OC)cc5N(C)[C@H]4[C@@](O)(C(=O)OC)[C@@H]1OC(=O)CCCN1CCN(Cc4ccc(C(F)(F)F)cc4)CC1)[C@@H]32` [Compound 23] the activity at 10 µM (OVCAR-5 [18]) was -86%, the GI50 (HCT-15) was 1740 nM and the GI50 (SR [1]) was 1660 nM. The GI50 (NCI-H460) was 1550 nM, the activity at 10 µM (M14 [2]) was -88.9% and the GI50 (T-47D [3]) was 1740 nM. The GI50 (SW-620) was 1550 nM, the GI50 (HCC-2998 [4]) was 1510 nM and the activity at 10 µM (DU-145) was -64.9%. It also gave an activity at 10 µM (UACC-62) of -91.5%, a GI50 (MDA-MB231ATCC) of 1740 nM and a GI50 (U251) of 1660 nM. The GI50 (SK-MEL-5 [5]) was 1350 nM, the activity at 10 µM (HT29) was -54.4% and the GI50 (MDA-MB-435) was 1480 nM. It also gave an activity at 10 µM (MDA-MB-468 [6]) of -58.2%, a GI50 (OVCAR-4) of 2040 nM and an activity at 10 µM (SK-OV-3) of -44%. For the same compound, the GI50 (M14 [7]) was 1550 nM, the GI50 (TK-10) was 1660 nM and the GI50 (IGROV1) was 1780 nM. It also gave a GI50 (BT-549 [9]) of 1660 nM, an activity at 10 µM (HOP-92) of -70.7% and a GI50 (PC-3 [10]) of 1580 nM. The GI50 (SF-268) was 1350 nM, the activity at 10 µM (UO-31) was -69.5% and the GI50 (OVCAR-5 [11]) was 1620 nM. For the same compound, the activity at 10 µM (T-47D [19]) was -20%, the activity at 10 µM (PC-3 [12]) was -72% and the GI50 (MDA-MB-468 [13]) was 1000 nM. For the same compound, the activity at 10 µM (SNB-19) was -89.1%, the activity at 10 µM (BT-549 [14]) was -92.4% and the activity at 10 µM (SR [20]) was -55.2%. It also gave an activity at 10 µM (HCC-2998 [15]) of -83.6%, a GI50 (LOX IMVI) of 1780 nM and a GI50 (A549/ATCC) of 1780 nM. The GI50 (OVCAR-3) was 1550 nM, the activity at 10 µM (NCI-H226) was -32.3% and the GI50 (ACHN) was 1780 nM. The GI50 (HL-60(TB)) was 1740 nM, the GI50 (HS 578T) was 1510 nM and the GI50 (NCI/ADR-RES [16]) was 1580 nM. It also gave an activity at 10 µM (MDA-MB-231/ATCC) of -94.4%, an activity at 10 µM (SK-MEL-5 [17]) of -98.5% and a GI50 (K-562) of 1700 nM.
